Here are results for three compounds from US5340818A, “Methods and compositions for inhibiting tumor cell growth” (priority 1993, dated 1994).

The term IC50 denotes the concentration at which inhibition is half-maximal.

Where “and” joins values, the source holds several entries; their conditions need not be identical. Equal entries are not always repeated.

One assay concerns L1210/Dx cells. The assay is described as follows: Cross-resistance studies: growth inhibition of doxorubicin-resistant L1210/Dx cells. Type of assay: cell-based. The note with it: for (IC50) 0/(IC50) Dx: L1210/0 and L1210/Dx; for IC50: Mus musculus, L1210/Dx (doxorubicin resistant).
Another assay relates to L1210/0 cells. Description: Cross-resistance studies: growth inhibition of doxorubicin-sensitive L1210/0 cells. Type of assay: cell-based. The note with it: L1210/0 (doxorubicin sensitive).
The next assay has as its system tumors. The note with it: literature; cited from earlier work.
The next assay deals with HL-60 cells. The assay is described as follows: HL-60 cell growth inhibition, 72 h. Type of assay: cell-based, human. The note with it: Homo sapiens, HL-60, 72 h, read-out: Cell Growth Inhibition, IC50. A digest of the protocol: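 HL-60 cells seeded at 1.5×10^5/ml in RPMI 1640, exposed 72 h at 37° C, 5% CO2 to compound at 0.0025-0.05 mg/ml in 0.1% DMSO. Viable cells counted by trypan blue exclusion; IC50 from median-effect analysis over three to five dose levels versus DMSO control.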

For assay [1], the system named is DNA synthesis in HL-60 cells. Description: Inhibition of [3H-methyl]dThd incorporation into DNA of HL-60 cells. The note with it: Homo sapiens, HL-60, at 0.03 mg/mL; read-out: % Inhibition of Precursor Incorporation, DNA. In kind it is cell-based, human. In short, it runs like this:
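HL-60 cells, 2.2×10^6 /ml, preincubated 15 min with compound in 0.3% DMSO, then 30 min with [3H-methyl]dThd (1 μCi, 0.15 nmole/ml). DNA incorporation compared with DMSO-only control.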

For the compound `COc1cccc2c1C(=O)c1c(O)c3c(c(O)c1C2=O)C[C@@](O)(C(=O)CO)C[C@@H]3O[C@H]1C[C@H](N)[C@H](O)[C@H](C)O1` [Doxorubicin], in the assay with L1210/Dx cells, the “(IC50) 0/(IC50) Dx” value came to 26.1 and the IC50 is 730 nM. Further, the IC50 in the assay on L1210/0 cells is 28 nM.
As to `CC(C)=CCc1c2c(c3[nH]c4ccccc4c(=O)c3c1O)C=CC(C)(C)O2` [Compound 36, Severifoline], the “antitumor activity, in words” value with tumors is reported as “no antitumor activity”. Besides, in the assay on HL-60 cells, the IC50 was > 40 µg/mL and > 111 µM. For the same compound, the inhibition at 30 µg/mL in assay [1] was determined as 20%.
In the case of `COc1cc(NS(C)(=O)=O)ccc1Nc1c2ccccc2nc2ccccc12` [m-AMSA], in the assay with L1210/Dx cells, the “(IC50) 0/(IC50) Dx” value is given as 61-610 and it took 61 nM to reach half-maximal inhibition (IC50). Also, in the assay with L1210/0 cells, the IC50 lay in the range of 0.1 to 1 nM.
